Measured values from PubChem BioAssay (NCI).
“And” between values parts separate entries of the source, which are not always exact repeats. Identical values can stand only once.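 Grown in 96-well plates, cells were treated for 48 hours with each compound at five concentrations. Insufficient inhibition: endpoint recorded as highest concentration tested. GI50 is the concentration that inhibits growth by half. The concentration for full growth arrest is given as TGI.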

Assays:
Assay in all cases: NCI tumour cell line growth inhibition, 48 h
[1] = system: A498 renal
[2] = system: ACHN renal
[3] = system: BT-549 breast
[4] = system: CAKI-1 renal
[5] = system: DLD-1 colon
[6] = system: DMS 114 small cell lung
[7] = system: DMS 273 small cell lung
[8] = system: DU-145 prostate
[9] = system: HCC-2998 colon
[10] = system: HOP-18 NSCLC
[11] = system: HOP-92 NSCLC
[12] = system: HS 578T breast
[13] = system: IGROV1 ovarian
[14] = system: KM12 colon
[15] = system: KM20L2 colon
[16] = system: LOX IMVI melanoma
[17] = system: M19-MEL melanoma
[18] = system: MCF7 breast
[19] = system: MDA-MB-231 breast
[20] = system: MDA-MB-435
[21] = system: MDA-N
[22] = system: NCI-H460 lung
[23] = system: NCI/ADR-RES ovarian
[24] = system: OVCAR-3 ovarian
[25] = system: OVCAR-5 ovarian
[26] = system: P388/ADR leukemia
[27] = system: PC-3 prostate
[28] = system: RXF 393 renal
[29] = system: RXF-631 renal
[30] = system: SF-295 CNS
[31] = system: SK-MEL-28 melanoma
[32] = system: SK-OV-3 ovarian
[33] = system: SN12C renal
[34] = system: SNB-19 CNS
[35] = system: SNB-78 CNS
[36] = system: SW-620 colon
[37] = system: T-47D breast
[38] = system: TK-10 renal
[39] = system: UACC-257 melanoma
[40] = system: UACC-62 melanoma
[41] = system: 786-0 renal
[42] = system: HCT-116 colon
[43] = system: HOP-62 NSCLC
[44] = system: MALME-3M melanoma
[45] = system: NCI-H23 lung
[46] = system: NCI-H522 lung
[47] = system: OVCAR-4 ovarian
[48] = system: OVCAR-8 ovarian
[49] = system: P388 leukemia
[50] = system: SNB-75 CNS
[51] = system: U251 CNS
[52] = system: UO-31 renal
[53] = system: A549 NSCLC
[54] = system: CCRF-CEM leukemia
[55] = system: COLO 205 colon
[56] = system: EKVX NSCLC
[57] = system: HCT-15 colon
[58] = system: HL-60(TB) leukemia
[59] = system: HT29 colon
[60] = system: K-562 leukemia
[61] = system: MOLT-4 leukemia
[62] = system: NCI-H226 lung
[63] = system: RPMI-8226 leukemia
[64] = system: SF-268 CNS
[65] = system: SF-539 CNS
[66] = system: SK-MEL-2 melanoma
[67] = system: SK-MEL-5 melanoma
[68] = system: SN12K1 renal
[69] = system: LXFL 529 NSCLC
[70] = system: M14 melanoma
[71] = system: XF 498 CNS

Structure (SMILES): COC1=C(C)C(=O)C2=C(C1=O)C1C3CC4=C(C(=O)C(OC)=C(C)C4=O)C(CNC(=O)C(C)=O)N3C(C#N)C(C2)N1C (centres undefined)
- GI50 [1]: 0.0634 µM
- GI50 [2]: 0.00366 µM
- TGI [2]: 1.16 µM and 1.23 µM
- TGI [3]: 0.0017 µM
- GI50 [4]: 1.63 pM
- TGI [4]: 0.126 µM
- GI50 [5]: 40.4 pM
- TGI [5]: 0.278 µM
- GI50 [6]: 21.5 pM
- GI50 [7]: 25.9 pM
- GI50 [8]: 0.0033 µM
- TGI [8]: 0.0862 µM
- GI50 [9]: 0.000219 µM
- GI50 [10]: 0.000212 µM
- TGI [11]: 0.00425 µM and 0.0162 µM
- TGI [12]: 0.00238 µM
- TGI [13]: 0.199 µM and 0.0948 µM
- TGI [14]: 31.3 nM and 72.6 nM
- GI50 [15]: 0.00267 µM
- TGI [15]: 0.246 µM and 1.03 µM
- GI50 [16]: 14.7 pM
- TGI [16]: 0.0874 nM and < 25.1 nM and < 10.5 nM
- GI50 [17]: 94.6 pM
- GI50 [18]: 74.2 pM
- TGI [18]: 0.359 µM and 0.379 µM
- TGI [19]: 12.7 nM and 15.4 nM
- GI50 [20]: 0.00034 µM
- TGI [20]: 0.00124 µM and 0.00553 µM
- GI50 [21]: 0.00351 µM
- TGI [21]: 0.026 µM
- TGI [22]: 0.0318 µM and 0.211 µM and 0.151 µM
- GI50 [23]: 1.16 µM
- TGI [23]: 4.05 µM and 2.76 µM
- TGI [24]: 0.00533 µM and 0.0414 µM and < 0.0468 µM
- TGI [25]: 0.0768 µM and 0.0776 µM
- TGI [26]: 0.349 µM
- TGI [27]: 0.195 µM and 0.0778 µM
- TGI [28]: 0.0161 µM
- GI50 [29]: 0.000385 µM
- GI50 [30]: 0.000966 µM
- TGI [30]: 0.253 µM and 0.383 µM
- GI50 [31]: 0.000169 µM
- GI50 [32]: 0.00656 µM and 0.0382 µM
- TGI [32]: 0.417 µM and 1.55 µM
- TGI [33]: 0.348 µM and 0.144 µM
- TGI [34]: 1.45 µM and 0.958 µM
- GI50 [35]: 57.9 pM
- TGI [36]: 0.297 µM and 0.125 µM
- GI50 [37]: 0.000553 µM
- TGI [37]: 0.00608 µM
- TGI [38]: 3.76 µM
- GI50 [39]: 5.76 pM
- GI50 [40]: 0.000111 µM
- TGI [40]: 0.000825 µM and 0.0075 µM

Structure (SMILES): COc1ccc2c3c(c4cc(OC)c(OC)cc4c2c1)C[C@H]1CCCCN1C3
- TGI [41]: 0.000212 µM
- TGI [4]: 0.00103 µM
- TGI [5]: 0.038 µM
- TGI [42]: 0.011 µM
- TGI [43]: 1.65e-06 µM
- TGI [14]: 0.00184 nM
- TGI [16]: 29 nM
- GI50 [44]: 1.82 pM
- TGI [44]: 9.88e-06 µM
- TGI [18]: 0.0316 µM
- TGI [19]: 0.00192 nM
- GI50 [45]: 2.01 pM
- TGI [45]: 0.000279 µM
- GI50 [46]: 2.82 pM
- TGI [46]: 0.000216 µM
- TGI [47]: 0.00591 µM
- TGI [48]: 0.0231 µM
- TGI [49]: 0.00512 µM
- TGI [32]: 0.0149 µM
- GI50 [50]: 1.78 pM
- TGI [50]: 0.000103 µM
- TGI [35]: 0.00897 µM
- GI50 [36]: 0.00889 µM
- TGI [51]: 0.0212 µM
- TGI [52]: 4.42e-06 µM

Structure (SMILES): CCCCCCCCCCCC1=C(O)C(=O)C=C(O)C1=O
- TGI [1]: 20.9 µM
- TGI [53]: 13.4 µM
- TGI [4]: 15.7 µM
- TGI [54]: 36.7 µM
- TGI [55]: 27.9 µM
- TGI [5]: 51.9 µM
- TGI [6]: 11.9 µM
- TGI [7]: 15.7 µM
- TGI [56]: 15.6 µM
- TGI [9]: 33 µM
- TGI [42]: 30.1 µM
- TGI [57]: 49.3 µM
- TGI [58]: 12.6 µM
- TGI [10]: 14.6 µM
- TGI [43]: 12.3 µM
- TGI [11]: 11.7 µM
- TGI [59]: 50.2 µM
- TGI [13]: 20.5 µM
- TGI [60]: 75.9 µM
- TGI [14]: 31600 nM
- TGI [15]: 35.4 µM
- TGI [16]: 38000 nM
- TGI [44]: 16.5 µM
- TGI [18]: 42.2 µM
- TGI [61]: 44.1 µM
- TGI [62]: 15.4 µM
- TGI [45]: 29.7 µM
- TGI [22]: 9.98 µM
- TGI [46]: 66.5 µM
- TGI [23]: 16.4 µM
- TGI [24]: 14.4 µM
- TGI [47]: 33.2 µM
- TGI [25]: 24.3 µM
- TGI [48]: 4.7 µM
- TGI [26]: 250 µM
- TGI [63]: 19.3 µM
- TGI [28]: 54.6 µM
- TGI [64]: 18 µM
- TGI [30]: 17.4 µM
- TGI [65]: 23.3 µM
- TGI [66]: 12.5 µM
- TGI [31]: 37.5 µM
- TGI [67]: 10.4 µM
- TGI [32]: 21.2 µM
- TGI [33]: 12.9 µM
- TGI [68]: 30.3 µM
- TGI [34]: 25.7 µM
- TGI [50]: 17.7 µM
- TGI [35]: 149 µM
- TGI [36]: 55.3 µM
- TGI [51]: 22.1 µM
- TGI [39]: 16.7 µM
- TGI [40]: 10.5 µM
- TGI [52]: 14 µM

Structure (SMILES): NC1=NN(c2ccccc2)C(=O)C1/C(=N\NC(=O)c1cc2ccccc2cc1O)C(=O)Nc1ccc(Cl)cc1 (centres undefined)
- TGI [41]: > 100 µM
- TGI [1]: 98.1 µM
- TGI [53]: > 100 µM
- TGI [2]: > 100 µM
- TGI [4]: > 100 µM
- TGI [54]: 24.4 µM
- TGI [55]: 49.7 µM
- TGI [5]: > 100 µM
- TGI [6]: 56.7 µM
- TGI [7]: > 100 µM
- TGI [56]: 62.9 µM
- TGI [9]: > 100 µM
- TGI [42]: > 100 µM
- TGI [57]: > 100 µM
- TGI [58]: 14.7 µM
- TGI [10]: > 100 µM
- TGI [43]: > 100 µM
- TGI [11]: 71.3 µM
- TGI [59]: > 100 µM
- TGI [13]: 80.9 µM
- TGI [60]: > 100 µM
- TGI [14]: > 100000 nM
- TGI [15]: > 100 µM
- TGI [69]: > 100 µM
- TGI [70]: 74.7 µM
- TGI [17]: 89.6 µM
- TGI [44]: > 100 µM
- TGI [61]: 40.5 µM
- TGI [62]: > 100 µM
- TGI [45]: 77.3 µM
- TGI [22]: > 100 µM
- TGI [46]: 83.4 µM
- TGI [24]: > 100 µM
- TGI [47]: > 100 µM
- TGI [25]: > 100 µM
- TGI [48]: > 100 µM
- TGI [63]: 96.1 µM
- TGI [29]: > 100 µM
- TGI [64]: 89.3 µM
- TGI [30]: > 100 µM
- TGI [65]: 69.3 µM
- TGI [66]: > 100 µM
- TGI [31]: > 100 µM
- TGI [67]: 56.5 µM
- TGI [32]: > 100 µM
- TGI [33]: > 100 µM
- TGI [34]: > 100 µM
- TGI [50]: 54.8 µM
- TGI [35]: > 100 µM
- TGI [36]: > 100 µM
- TGI [38]: > 100 µM
- TGI [51]: > 100 µM
- TGI [39]: 80.4 µM
- TGI [40]: 66.2 µM
- TGI [52]: 96.1 µM
- TGI [71]: > 100 µM
